Measurements published in publication PMC10257291, “Biological activities of extracts and compounds from Thai Kae-Lae (Maclura cochinchinensis (Lour.) Corner)” (BMC Complementary Medicine and Therapies, 2023).
≈ marks a conversion by molar mass, not a printed value.

Tests used:
RBC haemolysis induction = conditions: human, 2% red blood cell suspension
Protocol: The whole blood samples were obtained from normal volunteers. Red blood cells were separated by centrifugation and washed 2 times with 0.9% NaCl. Then, 2% RBC suspension was incubated with crude fractional extracts and compounds at 37 °C for 30 min. Triton-X 100 (2%) and NaCl (0.9%) were positive and negative controls, respectively. Then, the supernatant was collected, and haemoglobin concentration was measured by spectrophotometry at 540 nm. The haemolysis induction was calculated using the following equation:5 %Haemolysisinduction=Absorbance of sample/Absorbance of positive contr×100

K562 cells [1] = experiment: Cytotoxicity by MTT assay in K562 cells; format: cell-based; conditions: Homo sapiens, 48 h, read-out: IC50 values (mean ± SD) K562
Protocol: (§1) Leukaemic cell lines including KG-1a (leukaemic stem cell-like cell line with stem cell population), EoL-1 (human […] leukaemic cell line), and K562 (human erythroid leukaemic cell line) were cultured as previously described. The MTT (3-(4,5-dimethylthiazol-2-yl)-2,5-diphenyltetrazolium bromide) assay was used to determine the cytotoxicity of […] extracts and active compounds on leukaemic cells. The method was described previously. K562 (1.0 × 10^5 cells/mL), EoL-1 (3.0 × 10^5 cells/mL), and KG-1a (2.0 × 10^5 cells/mL) were added samples and then incubated for 48 h. The percentage of surviving cells was calculated using the following equation: 1 %Cellviability=Meanabsorbanceintestwell/[…] 50% inhibitory concentration (IC50) was determined as the lowest concentration that inhibited cell growth by 50% compared with the untreated control.

EoL-1 cells [2] = experiment: Rate of proliferation, EoL-1 cells; format: cell-based, human; conditions: for decrease of rate of proliferation, EoL-1 cells: IC20 value, 24 and 48 h (time-response), vs control; for rate of cell proliferation, EoL-1 cells (in words): concentrations IC10 − IC20 values, 48 h
Protocol: (§2) According to the principle of trypan blue exclusion, viable cells with intact membranes can exclude trypan blue dye, while dead cells with compromised membranes are stained by the trypan blue dye solution. A cell suspension and trypan blue dye solution (0.2%) were mixed, and viable and dead cells were counted under microscope using a hemacytometer. Then, the percentage of viable cells was calculated. KG-1a, EoL-1 and K562 cells were cultured with crude fractional extracts and active pure compounds at various concentrations (10 − 20% growth inhibition; IC10 − IC20 values) of each extract for 48 h, at a 20% growth inhibition (IC20 value) of each extract for 24 and 48 h. Following incubation, cells were harvested, and the total cell number was counted using trypan blue exclusion method. Three independent experiments were plotted as a dose–response curve and compared with the vehicle control. Meanwhile, the total cell number of each cell line after fractional extract and pure compound treatments at 24 and 48 h were calculated and plotted as a time-response curve. Slopes from each graph were considered as the rate of cell proliferation.

EoL-1 cells [3] = experiment: Cytotoxicity by MTT assay in EoL-1 cells; format: cell-based; conditions: Homo sapiens, EOL1, 48 h, read-out: IC50 values (mean ± SD) EoL-1
Protocol: as §1

PBMCs = experiment: Cytotoxicity of PBMCs by MTT assay; format: cell-based; conditions: Homo sapiens, PBMC, 48 h, normal PBMCs, read-out: IC50 values (mean ± SD) PBMCs
Protocol: Method was done as previously described. Briefly, peripheral blood mononuclear cells (PBMCs) were obtained from healthy donors using Ficoll-Hypaque density-gradient centrifugation using Lymphoprep™ solution (Axis-Shield, Oslo, Norway). The PBMCs (1 × 10^6 cells/mL) were cultured in complete RPMI-1640 medium in 96-well plates overnight in a CO2 incubator. […] Then cells were further incubated for 48 h. The survival rate of cells was assessed using the MTT assay.

KG-1a cells = experiment: Cytotoxicity by MTT assay in KG-1a cells; format: cell-based; conditions: Homo sapiens, 48 h, read-out: IC50 values (mean ± SD) KG-1a
Protocol: as §1

K562 cells [4] = experiment: Rate of proliferation, K562 cells; format: cell-based, human; conditions: for decrease of rate of proliferation, K562 cells: IC20 value, 24 and 48 h (time-response), vs control; for rate of cell proliferation, K562 cells (in words): concentrations IC10 − IC20 values, 48 h
Protocol: as §2

RAW 264.7 cells = experiment: RAW 264.7 cell viability by MTT assay; format: cell-based; conditions: Mus musculus, RAW264.7, read-out: IC20 values (concentrations at 80% of RAW 264.7 cells)
Protocol: Mouse monocyte macrophage RAW 264.7 cells (American Type Culture Collection, […]-71) were stimulated with lipopolysaccharide (LPS) or phytohemagglutinin (PHA). The LPS treated RAW 264.7 cells served as a vehicle control, of which the NO production, and the secreted cytokines were defined as 100%, whereas a negative control was non-treated RAW 264.7 cells. Dexamethasone (an anti-inflammatory drug) was used as a positive control. RAW 264.7 cell viability was also determined with the assay kit using MTT assay. The supernatant was removed, and MTT was added. After 2 h in a CO2 incubator, the supernatant was removed, and the formazan crystal were dissolved with DMSO. The optical density was measured at 578 nm and corrected with the reference wavelength of 630 nm using a multimode detector (Beckman CoulterDTX880, Fullerton, CA, USA). NO inhibitions were calculated using the following equation: […]

IL-2 = IL-2 secretion in PHA-stimulated PBMCs (ELISA); format: cell-based, human; conditions: sample at IC20 value, vs dexamethasone 1 μg/mL
From the text: Mouse monocyte macrophage RAW 264.7 cells (American Type Culture Collection, […]-71) were stimulated with lipopolysaccharide (LPS) or phytohemagglutinin (PHA). The LPS treated RAW 264.7 cells served as a vehicle control, of which the NO production, and the secreted cytokines were defined as 100%, whereas a negative control was non-treated RAW 264.7 cells. Dexamethasone (an anti-inflammatory drug) was used as a positive control. PBMCs (1 × 10^5 cells/well in RPMI-1640 for IL-2) and Raw cells (1 × 10^5 cells/well in DMEM for TNF-α) were seeded for 24 h in a CO2 incubator set at 37 °C and 5% CO2/95% humidified air. Then cells were treated with […] fractional extracts (IC20 value) or pure compounds (IC20 value), or dexamethasone (1 μg/mL) were added. Following 2-h of incubation in a CO2 incubator, LPS was treated for a final dose of 1 μg/mL under conditions of TNF-α measurement. In contrast, PHA was added to induce inflammation in IL-2 measurement. After 24 h, the media were removed and centrifuged at 13,500 × g for 10 min and 100 μL of the supernatant was analysed by the protocol of R&D Systems, Minneapolis, MN, USA using ELISA technique. The absorbance was measured at 450 nm and corrected with the reference wavelength of 570 nm (Beckman CoulterDTX880, Fullerton, CA, USA). Viability of PBMCs and RAW 264.7 cells was also determined using MTT assay as described previously. IL-2 and TNF-α secretion inhibitions were calculated as bellow:4 %Cytokineinhibition=A-B/A×100 A is the optical density of the mixture without the sample, while B is the optical density of the mixture with the sample. Dexamethasone was a positive control. All experiments were done in triplicate.

Structure (SMILES)	hemolysis at 30 min, 50 μg/mL (RBC haemolysis induction) [%]	hemolysis at 30 min, 100 μg/mL (RBC haemolysis induction) [%]	hemolysis at 30 min, 150 μg/mL (RBC haemolysis induction) [%]	IC50 (K562 cells [1]) [µg/mL]	decrease of rate of proliferation, EoL-1 cells (EoL-1 cells [2])	IC50 (EoL-1 cells [3]) [µg/mL]	IC50 (PBMCs) [µg/mL]	IC50 (KG-1a cells) [µg/mL]	decrease of rate of proliferation, K562 cells (K562 cells [4])	rate of cell proliferation, K562 cells (in words) (K562 cells [4])	IC20 (RAW 264.7 cells) [µg/mL]	IL-2 inhibition (IL-2)	hemolysis at 30 min, 10 μg/mL (RBC haemolysis induction) [%]	rate of cell proliferation, EoL-1 cells (in words) (EoL-1 cells [2])	hemolysis at 30 min, 20 μg/mL (RBC haemolysis induction) [%]	hemolysis at 30 min, 40 μg/mL (RBC haemolysis induction) [%]
O=c1c(O)c(-c2ccc(O)cc2O)oc2cc(O)cc(O)c12 [Morin, 2’,3,4’,5,7-pentahydroxyflavonone]	9.39 ± 1.34	9.82 ± 1.09	10.2 ± 1	> 100	decrease the proliferation rate	18.4 ± 1.6 (≈ 60.7 µM)	> 100	> 100	decrease the proliferation rate	significant difference at concentrations of 70, 80, and 90 µg/mL	62.4 ± 7.44 (≈ 206 µM)	suppressed IL-2 significantly better than dexamethasone	–	–	–	–
O=c1c(O)c(-c2ccc(O)c(O)c2)oc2cc(O)cc(O)c12 [Quercetin, quercetin]	8.85 ± 0.21	8.74 ± 0.26	–	> 100	significantly decreasing rates of proliferation	5.89 ± 0.46 (≈ 19.5 µM)	> 100	72.6 ± 7.45 (≈ 240 µM)	significantly decreasing rates of proliferation	significantly decreasing rate of cell proliferation	35.5 ± 6.49 (≈ 118 µM)	suppressed IL-2 significantly better than dexamethasone	8.51 ± 0.86	significantly decreasing rate of cell proliferation	–	–
Oc1ccc(/C=C/c2cc(O)cc(O)c2)cc1 [Resveratrol, resveratrol]	–	–	–	41.6 ± 1.92 (≈ 182 µM)	95.45%	5.49 ± 0.29 (≈ 24.1 µM)	44 ± 9.7 (≈ 193 µM)	20.7 ± 2.65 (≈ 90.7 µM)	93.20%	significantly decreasing rate of cell proliferation	3.4 ± 0.2 (≈ 14.9 µM)	suppressed IL-2 significantly better than dexamethasone	8.96 ± 1.83	significantly decreasing rate of cell proliferation	8.58 ± 0.67	8.95 ± 0.21
